Holding throughout (experiment): NCI-60 cell line screen, 48 h
The test system of test [1] is SK-MEL-28 melanoma.
The subject of test [2] is 786-0 renal.
Test [3] relates to LOX IMVI melanoma.
The test system of test [4] is COLO 205 colon.
For test [5], the system named is MCF7 breast.
Test [6] has as its system K-562 leukemia.
In test [7] the test system is SN12C renal.
Test [8] concerns PC-3 prostate.
The test system of test [9] is NCI-H23 lung.
In test [10] the test system is CCRF-CEM leukemia.

In PubChem BioAssay (NCI) one finds TGI and GI50 data, which are given here for eight compounds.

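Growth conditions: 96-well plates. Treatment: test compound, 48 hours, 5 concentrations. Analysis: linear interpolation between bracketing concentrations; unreached endpoints set to highest concentration. GI50 is the concentration that inhibits growth by half. TGI: concentration producing complete growth inhibition.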

On to `CN(C)Cc1ccc(-c2cc3onc(-c4ccccc4)c3c(=O)n2C)cc1`, for which the TGI in test [1] is 41.2 µM; in test [2] it was 35 µM; in [3], 49.8 µM; in test [4] it was 41.1 µM; in test [5], more than 100 µM; in test [6] it was 74.2 µM. The TGI in [7], in [8] and in test [9] was more than 100 µM in each case.

Regarding `CNC(=O)NCC1OC(n2cnc3c(NC(=O)Nc4ccccc4)ncnc32)C(O[Si](C)(C)C(C)(C)C)C1O[Si](C)(C)C(C)(C)C` (stereo unspecified), the GI50 in test [2] is 2.04 µM; in test [3], 1.82 µM; in [4] it was 1.89 µM; in test [5], 2.69 µM; in test [10] it was 3.59 µM; in test [7] it was 1.81 µM. In addition, the figures for the GI50 in test [8] and in test [9] were 2.69 µM and 3.17 µM, respectively. For the same compound, the TGI is 3.71 µM in [2]; 3.36 µM in test [3]; 3.36 µM in test [4]; 19.4 µM in [5]; more than 100 µM in test [10]; 3.38 µM in test [7]. The results for the TGI in test [8] and in test [9] were more than 100 µM and 9.07 µM, respectively.

With `O=C(Oc1cccc(Cl)c1)c1ccccc1Nc1ccnc(C(F)(F)F)c1`, the GI50 in [2] was 3.53 µM; in test [5] it was 4.78 µM; in test [10], 0.898 µM; in test [6] it was 3.27 µM; in [7], 2.92 µM; in test [8], 7.39 µM. Moreover, in test [9], the GI50 was 2.41 µM. Moreover, the TGI in test [2] came out at 11.4 µM; in test [5], 20 µM; in [10], 91.6 µM; in test [6], 34.3 µM; in [7] it was 6.18 µM; in [8] it was 23.6 µM. The compound further had a TGI in [9] of 8.26 µM.

For `CCCCC(SC(=S)N1CCCC1)C(=O)Nc1nc(CC(=O)OCC)cs1` (stereo unspecified), the GI50 is 67.4 µM in [1]; 62.2 µM in test [2]; 36.1 µM in test [3]; 1.25 µM in [5]; 15.6 µM in [6]; 85.2 µM in test [7]. The GI50 in [8] is 0.985 µM. In addition, the TGI in [1], in test [2], in [3], in test [5], in test [6] and in test [7] was more than 100 µM each time. Further, the TGI in test [8] was more than 100 µM.

`COc1c(C(C)=O)c(OCCCCOc2c(C(C)=O)c(OC)c3ccoc3c2OC)c(OC)c2occc12`: the GI50 in test [1] was 2.32 µM; in [2] it was more than 100 µM; in [3], 4.81 µM; in [4], 4.35 µM; in test [5], 3.11 µM; in test [6], 5.45 µM. In addition, the figures for the GI50 in [7], in test [8] and in [9] were more than 100 µM, 1.69 µM and 4.64 µM, respectively. The TGI in [1] is 7.05 µM; in test [2] it was more than 100 µM; in test [3], more than 100 µM; in [4], more than 100 µM; in [5], more than 100 µM; in test [6], more than 100 µM. Besides, the figures for the TGI in test [7], in test [8] and in [9] were more than 100 µM, more than 20.6 µM and more than 100 µM, respectively.

With `O=C(O)C(Cc1cnc[nH]1)N1C(=O)c2ccccc2C1=O` (stereo unspecified), the TGI in test [1], in test [2], in test [3], in test [4], in test [5] and in test [6] was more than 100 µM in each case. In addition, the TGI in [7], in test [8] and in test [9] was more than 100 µM throughout.

For `COc1ccc(/C=C(/c2ccccc2)[N+](=O)[O-])c(OC)c1`, the GI50 in [1] is 1.5 µM; in [2], 1.62 µM; in [3], 0.399 µM; in test [4] it was 2.04 µM; in test [10] it was 0.46 µM; in test [6], 0.494 µM. Moreover, the figures for the GI50 in [7], in test [8] and in test [9] were 1.47 µM, 1.32 µM and 1.93 µM, respectively. In addition, the TGI in test [1] is 3.03 µM; in [2], 3.16 µM; in test [3], 1.63 µM; in test [4], 4.28 µM; in test [10], 4.76 µM; in test [6] it was 38.2 µM. Further, the TGI in test [7] came to 3 µM; in test [8] it was 2.79 µM; in test [9] it was 4.76 µM.

`Oc1c(C(Nc2ccccc2Br)c2ccccc2)ccc2cccnc12` (stereo unspecified): the GI50 is 2.46 µM in test [1]; 2.22 µM in test [2]; 1.91 µM in test [3]; 2.75 µM in test [4]; 1.56 µM in [5]; 2.3 µM in test [6]. Moreover, the GI50 in test [7] was 2.68 µM; in [8] it was 3.92 µM; in test [9], 3.96 µM. Also, the TGI in [1] was 14.9 µM; in [2], 6.41 µM; in test [3], 13.6 µM; in [4], 36.6 µM; in test [5], 65.1 µM; in [6], more than 100 µM. Further, the TGI in [7] is 35.1 µM; in [8], more than 100 µM; in test [9] it was 26.9 µM.
